Reference: patent publication US20020065212A1, “METHODS OF TREATING DISEASE USING SERTOLI CELLS AND ALLOGRAFTS OR XENOGRAFTS” (priority 1996, published 2002)

Tests used:
[1] = tested on: spontaneously diabetic BB/Wor dp rats; assay: Metabolic parameters, serum insulin and glucagon after intratesticular islet grafts; format: in vivo, rat
Description: This study examined insulin and glucagon secretory patterns in spontaneously diabetic bb/Wor dp rats transplanted with abdominal, intratesticular, islet grafts. Diabetic, BB/Wor dp, rats received intratesticular islet grafts from MHC-compatible BB/Wor dr rats and no immunosuppression. After a period of 74±15 days, of normoglycemia, three different groups (controls; BB/Wor dp, transplanted; and BB/Wor dp, insulin treated) were given the following challenges; (1) an oral glucose tolerance test (OGTT), (2) a single oral dose of glipizide, followed by an OGTT, and (3) arginine, by intravenous infusion. The results of this study are shown in Tables 1 and 2 and FIGS. 5 and 6.

[2] = tested on: spontaneously diabetic BB/Wor dp rats; assay: Pancreatic and testicular insulin and glucagon content; format: in vivo, rat

## insulin
[1]; After 2.5 months
  Plasma Glucose: 350 ± 40 mg/dL
[1]; Prior to therapy
  Plasma Glucose: 510 ± 13+ mg/dl
[1]; rat, in vivo
  Fasting Plasma Glucagon: 47.4 ± 4.9 pg/mL
  Weight gain: 48 ± 14$ g
[2]; pancreas
  Pancreatic Glucagon content: 6.9 ± 0.80 ng/mg
  Pancreatic Insulin content: 0.76 ± 0.12 µg/g
[2]; testes fractions
  Testicular Glucagon content: 0.0 ng/mg
  Testicular Insulin content: 0.0 µg/g
